In data set [1] the test system is Staphylococcus aureus. Briefly: Antimicrobial activity against Staphylococcus aureus ATCC 25923 assessed as reduction in bacterial growth at 0.5 times MIC preincubated for 4 hrs followed by replating on MHB agar and measured after 24 hrs by time kill assay. The note with it: time 28.0 hrs. Format: functional, organism-based.
For data set [2], the system named is Staphylococcus aureus. Nature of the data set: Antimicrobial activity against Staphylococcus aureus ATCC 25923 assessed as reduction in bacterial growth at 0.5 to 1 times MIC preincubated for 4 hrs followed by replating on MHB agar and measured after 24 hrs by time kill assay. Format: functional, organism-based. The note with it: time 28.0 hrs.
The subject of data set [3] is Staphylococcus aureus. Nature of the data set: Ratio of MIC for antimicrobial activity against Staphylococcus aureus ATCC 25923 in presence of 2.5% serum to MIC for antimicrobial activity against Staphylococcus aureus ATCC 25923 in absence of serum. Format: functional.
In data set [4] the test system is Staphylococcus aureus. Nature of the data set: Antimicrobial activity against Staphylococcus aureus ATCC 25923 assessed as bacterial killing at 2 times MIC preincubated for 2 hrs followed by replating on MHB agar and measured after 24 hrs by time kill assay. Type of data set: functional, organism-based. The note with it: time 26.0 hrs.
For data set [5], the system named is Cell membrane. Nature of the data set: Induction of membrane disruption in Staphylococcus aureus ATCC 25923 assessed as increase in cell content leakage at 4 times MIC measured after 2 to 4 hrs by SEM analysis. Type of data set: subcellular. The note with it: time 2-4 hrs.
For data set [6], the system named is Cell membrane. Nature of the data set: Induction of cytoplasmic membrane disruption in Staphylococcus aureus ATCC 25923 measured for 15 mins by DiSC3-5 dye based fluorescence assay.
Data set [7] relates to HEK-293T. Briefly: Cytotoxicity against HEK293T cells assessed as reduction in cell viability at 64 to 128 uM measured after 24 hrs by MTT assay. Format: cell-based. The note with it: human, dose 64-128 µM. A general note: Tetrazolium dyes change colour on reduction, which living cells bring about.
Data set [8] is described as follows: Stability in mouse serum assessed as parent compound remaining at volume ratio of 1:19 measured after 6 hrs by RP-HPLC analysis. The note with it: read-out: Stabilty. Type of data set: ADME, cell-free.
Data set [9] deals with Staphylococcus aureus. Nature of the data set: Antimicrobial activity against Staphylococcus aureus ATCC 25923 assessed as bacterial killing at 4 times MIC preincubated for 30 mins followed by replating on MHB agar and measured after 24 hrs by time kill assay. Format: functional, organism-based. The note with it: time 24.5 hrs.
Data set [10] deals with Staphylococcus aureus. Briefly: Antimicrobial activity against Staphylococcus aureus ATCC 25923 assessed as bacterial killing at 0.5 times MIC preincubated for 4 hrs followed by replating on MHB agar and measured after 24 hrs by time kill assay. The note with it: time 28.0 hrs. Format: functional, organism-based.
Data set [11] is described as follows: Toxicity in BALB/c mouse assessed as swelling of renal tubular epithelial cells at 80 mg/kg, ip administered as single dose measured after 5 days. Format: organism-based. The note with it: in vivo, 120 h, time 5 day.
Data set [12] deals with Staphylococcus aureus. Nature of the data set: Antimicrobial activity against Staphylococcus aureus ATCC 25923 infected in neutropenia BALB/c mouse assessed as reduction in bacterial load in kidney at 10 to 20 mg/kg, ip administered staring from 2 hrs post infection and measured 8 hrs post-infected. Format: functional, organism-based. The note with it: dose 10-20 mg/kg, time 6.0 hrs.

Data set [13] is described as follows: Toxicity in BALB/c mouse assessed as effect on motility at 80 mg/kg, ip administered as single dose measured for 5 days. The note with it: in vivo, 120 h, time 5 day. Type of data set: organism-based.
The nature of data set [14]: Toxicity in BALB/c mouse assessed as eosinophilic mass in the renal tubular lumen at 80 mg/kg, ip administered as single dose measured after 5 days. The note with it: in vivo, 120 h, time 5 day. Format: organism-based.
Data set [15] in a line: Toxicity in BALB/c mouse assessed as inflammatory cell infiltration in liver at 80 mg/kg, ip administered as single dose measured after 5 days. Format: organism-based. The note with it: in vivo, 120 h, time 5 day.
A short description of data set [16]: Stability in mouse serum assessed as drug degradation at volume ratio of 1:19 measured after 6 hrs by RP-HPLC analysis. Format: ADME, cell-free. The note with it: read-out: Drug degradation.
Data set [17] in a line: Toxicity in BALB/c mouse assessed as inflammatory cell infiltration in kidney at 80 mg/kg, ip administered as single dose measured after 5 days. Type of data set: organism-based. The note with it: in vivo, 120 h, time 5 day.
A short description of data set [18]: Toxicity in BALB/c mouse assessed as ruffled fur at 80 mg/kg, ip administered as single dose measured for 5 days. Format: organism-based. The note with it: in vivo, 120 h, time 5 day.
Data set [19] deals with Staphylococcus aureus. Nature of the data set: Antimicrobial activity against Staphylococcus aureus ATCC 25923 infected in neutropenia BALB/c mouse assessed as reduction in bacterial load in kidney at 10 mg/kg, ip administered staring from 2 hrs post infection and measured 8 hrs post-infected in presence of ciprofloxacin. Type of data set: functional, organism-based. The note with it: time 6.0 hrs.

Data set [20] deals with Staphylococcus aureus. Nature of the data set: Antimicrobial activity against Staphylococcus aureus ATCC 25923 infected in neutropenia BALB/c mouse assessed as reduction in bacterial load in liver at 10 mg/kg, ip administered staring from 2 hrs post infection and measured 8 hrs post-infected in presence of ciprofloxacin. Format: functional, organism-based. The note with it: time 6.0 hrs.

The test system of data set [21] is Staphylococcus aureus. Briefly: Antimicrobial activity against Staphylococcus aureus ATCC 25923 assessed as bacterial killing at 2 to 4 times MIC preincubated for 30 mins followed by replating on MHB agar and measured after 24 hrs by time kill assay. Format: functional, organism-based. The note with it: time 24.5 hrs.
Data set [22] has as its system Staphylococcus aureus. Nature of the data set: Antimicrobial activity against Staphylococcus aureus ATCC 25923 infected in neutropenia BALB/c mouse assessed as reduction in lung bacterial load at 10 mg/kg, ip administered staring from 2 hrs post infection and measured 8 hrs post-infected in presence of ciprofloxacin. Type of data set: functional, organism-based. The note with it: time 6.0 hrs.

Data set [23] concerns Staphylococcus aureus. Nature of the data set: Antimicrobial activity against Staphylococcus aureus ATCC 25923 infected in neutropenia BALB/c mouse assessed as reduction in bacterial load in spleen at 10 to 20 mg/kg, ip administered staring from 2 hrs post infection and measured 8 hrs post-infected. Type of data set: functional, organism-based. The note with it: dose 10-20 mg/kg, time 6.0 hrs.

Data set [24] can be described thus: Cytotoxicity against HEK293T cells assessed as cell viability at 128 uM measured after 24 hrs by MTT assay relative to control. Format: cell-based, HEK-293T. The note with it: human, read-out: Activity.
Data set [25] concerns Staphylococcus aureus. Nature of the data set: Antimicrobial activity against Staphylococcus aureus ATCC 25923 infected in neutropenia BALB/c mouse assessed as reduction in bacterial load in liver at 10 to 20 mg/kg, ip administered staring from 2 hrs post infection and measured 8 hrs post-infected. Format: functional, organism-based. The note with it: dose 10-20 mg/kg, time 6.0 hrs.

The test system of data set [26] is Cell membrane. Nature of the data set: Induction of cytoplasmic membrane disruption in Staphylococcus aureus ATCC 25923 at 0.5 to 4 times MIC measured for 15 mins by DiSC3-5 dye based fluorescence assay.
For data set [27], the system named is Staphylococcus aureus. Briefly: Antimicrobial activity against Staphylococcus aureus ATCC 25923 assessed as bacterial killing at MIC preincubated for 1 hr followed by replating on MHB agar and measured after 24 hrs by time kill assay. The note with it: time 25.0 hrs. Type of data set: functional, organism-based.
The subject of data set [28] is Mus musculus. Briefly: Antiinflammatory activity in Staphylococcus aureus ATCC 25923 infected neutropenia BALB/c mouse assessed as reduction in TNFalpha level in serum at 10 to 20 mg/kg, ip administered staring from 2 hrs post infection and measured 8 hrs post-infected. Format: functional, organism-based. The note with it: dose 10-20 mg/kg, time 6.0 hrs.
Data set [29] has as its system Staphylococcus aureus. Briefly: Antimicrobial activity against Staphylococcus aureus ATCC 25923 infected in neutropenia BALB/c mouse assessed as reduction in lung bacterial load at 10 to 20 mg/kg, ip administered staring from 2 hrs post infection and measured 8 hrs post-infected. Type of data set: functional, organism-based. The note with it: dose 10-20 mg/kg, time 6.0 hrs.

Data set [30] relates to Mus musculus. Briefly: Antiinflammatory activity in Staphylococcus aureus ATCC 25923 infected neutropenia BALB/c mouse assessed as reduction in TNFalpha level in serum at 10 mg/kg, ip administered staring from 2 hrs post infection and measured 8 hrs post-infected in presence of ciprofloxacin. Type of data set: functional, organism-based. The note with it: time 6.0 hrs.
Data set [31] in a line: Toxicity in BALB/c mouse assessed as inflammatory cell infiltration in liver at 20 to 40 mg/kg, ip administered as single dose measured after 5 days. Type of data set: organism-based. The note with it: in vivo, 120 h, dose 20-40 mg/kg, time 5 day.
Data set [32] is described as follows: Toxicity in BALB/c mouse assessed as effect on body weight at 20 to 80 mg/kg, ip administered as single dose measured for 5 days. The note with it: in vivo, 120 h, dose 20-80 mg/kg, time 5 day. Type of data set: organism-based.

Activity calls are given as the source filed them. The rule behind the calls is not given here. Residues, ends and D or L forms follow the SMILES beside them. *: point of attachment. Myristoyl = CCCCCCCCCCCCCC(=O)*; Lauroyl = CCCCCCCCCCCC(=O)*

As to `CCCCCCCCCCCC(=O)N[C@@H](CCCNC(=N)N)C(=O)N[C@@H](CCCNC(=N)N)C(=O)N[C@@H](Cc1c[nH]c2ccccc12)C(N)=O` (Lauroyl-Arg-Arg-Trp-NH2), the outcome in data set [1], in data set [4], in [5] and in [9] was Active. Moreover, the outcome in data set [2] was inactive. In data set [3], the Ratio is 8. The Activity entry is “Dose-dependent effect” in [6] and “Toxic” in data set [7]. Further, the remaining at 6 h in data set [8] is 70%.

Consider `CCCCCCCCCCCCCC(=O)N[C@@H](CCCNC(=N)N)C(=O)N[C@@H](Cc1c[nH]c2ccccc12)C(=O)N[C@@H](Cc1c[nH]c2ccccc12)C(N)=O` (Myristoyl-Arg-Trp-Trp-NH2), for which the outcome in [10] was inactive. The Activity entry in data set [11], in data set [13], in data set [14], in data set [15], in [17] and in [18] was “Toxic” in each case. In addition, the Activity result is on record as “Non-Toxic” in [31] and “Toxic” in [32]. For the same compound, the result in data set [12], in data set [19], in [5], in data set [20], in data set [21] and in data set [22] was Active. For the same compound, the outcome in [23], in [25], in data set [26], in [27], in [28] and in data set [29] was Active. In [30], the outcome was Active. The metabolised at 6 h in [16] was 70%. Besides, in [24], the viability at 24 h, 128 µM is above 80%.

For the origin of these results see ChEMBL document CHEMBL4706653, “Ultra-short lipopeptides against gram-positive bacteria while alleviating antimicrobial resistance” (Eur J Med Chem, 2021).
